Assay results taken from patent publication US20090149506A1, “INSECTICIDAL COMPOSITIONS WITH IMPROVED EFFECT” (Bayer CropScience AG, priority 2005, published 2009).

Legend:
[1] = test system: Green peach aphid (Myzus persicae); assay: Myzus persicae test (MYZUPE), spray treatment of infested bell pepper plants; format: in vivo; details: 0.8 ppm, after 6 d, spray on bell pepper plants (Capsicum annuum); 100% = all aphids killed, 0% = none killed
Protocol: Myzus persicae Test (MYZUPE)
(§1) To produce a suitable preparation of active compound, 1 part by weight of active compound is mixed with the stated amounts of solvent and emulsifier, and the concentrate is diluted with emulsifier-containing water to the desired concentration. If addition of ammonium salts or ammonium salts and penetrant is required, the appropriate amount is added by pipette after dilution of the respective finished preparation solution.
Bell pepper plants (Capsicum annuum) which are heavily infested by the Green peach aphid (Myzus persicaei) are treated by spraying with the active compound preparation of the desired concentration.
(§2) After the desired period of time, the kill in % is determined. 100% means that all aphids have been killed; 0% means that none of the aphids have been killed.
(§3) In this test, for example, the following embodiments of the invention show good activity: see table below

[2] = test system: cotton aphid (Aphis gossypii); assay: Aphis gossypii test (APHIGO), spray treatment of infested cotton leaves; format: in vivo; details: 0.8 ppm, after 6 d, spray on cotton leaves (Gossypium hirsutum); 100% = all aphids killed, 0% = none killed
Protocol: Aphis gossypii Test (APHIGO)
as §1
Cotton leaves (Gossypium hirsutum) which are heavily infested by the cotton aphid (Aphis gossypii) are sprayed with an active compound preparation of the desired concentration.
as §2, §3

CNC(=O)c1cc(Cl)cc(C)c1NC(=O)c1cc(Br)nn1-c1ncccc1Cl [Example I-1-3]
kill in % (% 6 d) [1]: 0%
kill in % (% 6 d) [2]: 0%
